Experimental data reported in patent US20240374610A1, “METHOD AND PHARMACEUTICAL COMPOSITION FOR TREATING OR ALLEVIATING GLIOMAS IN A SUBJECT” (Zhejiang University, priority 2023, published 2024).

What was measured:
[1] = system: CKO model-derived glioma cell lines 1483 and 1877; assay: Proliferation rate of CKO model-derived glioma cell lines (EdU incorporation assay); type: cell-based, mouse; details: for proliferation of tumor OPCs: 200 μM glutamate, 200 μM GABA or 15 mM KCl vs control, cell lines 1483 and 1877
From the text: Cell lines were authenticated by tdTomato marker when histology analyzing. All cell lines tested negative for mycoplasma contamination.

local resident microglia = assay: Granulocytes and macrophage/microglia in the brain under clozapine (CD15, Iba1, CD68 staining); type: in vivo, mouse
Protocol: All mouse frozen tissues were cryo-sectioned into 20 μm thickness. For routine staining, the slides were fixed in ice-cold 2% PFA for 15 minutes. After washed in 1×PBS (3 times, 10 minutes each), the slides were briefly rinsed with 1×PBT (0.3% Triton X-100 in 1×PBS) and then incubated with the blocking solution (5% normal donkey serum, 0.3% Triton X-100, 0.1% NaN3 in 1×PBS) for 20 minutes. The slides mounted with primary antibodies were then incubated in the wet box at 4° C. overnight. Next day, the slides were washed in 1×PBT (4 times, 10 minutes each) before incubated with secondary antibodies (diluted in 1×PBT) in foil-wrapped wet box at 4° C. overnight. The third day, the slides were washed in 1×PBT (4 times, 10 minutes each) and DAPI solution (25 ng/ml in 1×PBS, 20 minutes). After washing with 1×PBS for 5 minutes, the slides were mounted with the mounting solution (65% glycerol in 1×PBS) and covered with coverslips.

blood-brain-barrier = assay: Evans Blue dye assay of blood-brain barrier integrity; type: in vivo, mouse; details: WT mice, clozapine by drinking water or i.p.
Protocol: The protocol was adapted from Ludewig et al.^42 with some modifications. Mice were administrated with 200 μL Evans Blue (2%) by i.p injection. After six hours of EB injection, the mice were anaesthetized and then perfused with cold PBS. 100 mg tissue for each sample from multiple organs (as indicated in the FIG. 9g) was collected in 500 μL PBS and ground into tissue homogenate. 500 μL formamide was then add to the homogenate before being incubated in the 55° C. for 24 hours. After centrifugation, supernatants were collected for optical density detecting at 620 nm.

peripheral immune cells = assay: Immune cells in peripheral blood under clozapine (FACS); type: in vivo, mouse; details: clozapine by oral or i.p. administration, three weeks
Protocol: Blood was collected by intracardial puncture from anaesthetized mice into heparinized 1 ml syringes. Heparin was used in a range of 30 units/ml. Red blood cells were lysed in ACK lysing buffer (Gibco, A10492) at room temperature for 5 min. Cell suspensions were spun down at 300 g for 5 min. The cell pellet was then washed with Hank's balanced salt solution (HBSS) and spun for 5 min at 300 g. The cells in the pellet (1-2×10^5 cells) were used in fluorescence assays. Antibodies used for flow cytometry were directed against the following mouse antigens: Pacific Blue anti-mouse CD45(30-F11), PE anti-mouse Ly-6G(1A8), PerCP/Cyanine5.5 anti-mouse CD11c, FITC anti-mouse CD19(1D3), APC anti-mouse CD3(17A2), APC/Cyanine7 anti-mouse/human CD11b(M1/70) from Biolegend. Dilution: 1: 200.

[2] = system: glioma cells from the CKO model; assay: RNA-Seq of glioma cells co-cultured with primary OB neurons and stimulated by IGF-1; type: cell-based, mouse; details: co-cultures stimulated by 20 ng/mL IGF-1
Protocol: OBs were dissected from P2-3 mouse pups and digested in 10 mL papain solution (1×EBSS (Sigma, E7510), 0.5 mM EDTA, 10 mM HEPES, 26 mM NaHCO3, 22.5 mM D(+)-glucose, 0.16 mg/mL L-cycteine, 20 units/mL papain (Worthington Biochem, LS003126), 250 μg/mL DNase I (Sigma, DN-25) in dd-water) for 30 min at 37° C. Papain solution was discarded and the tissue was triturated with 2 mL Diluted Trypsin Inhibitor Buffer (1×EBSS (Sigma, E7510), 10 mM HEPES, 26 mM NaHCO3, 1× ovomucoid (Worthington Biochem, LS003086), 250 μg/mL DNase I (Sigma, DN-25), 1 mg/mL BSA (equitech-bio, BAH62) in dd-water) by 1 mL pipette and was allowed to settle for 2 min. 1 mL upper cell suspension was carefully collected and additional 1 mL Diluted Trypsin Inhibitor Buffer was add to the tissue. The process was repeated until all Diluted Trypsin Inhibitor Buffer was consumed. […]
For sequencing of tumor cells from co-cultures, raw data was filtered by removing adapter with Cutadapt (Version 3.4) and quality control (not lower than 25). Clean reads were aligned to the reference genome Mus_musculus.GRCm39.dna.primary_assembly.fa (39.103) from Ensembl by STAR (Version 2.7.9a). Read counts were calculated by featureCounts (Version 2.0.1). The feature was selected as Exon, and only reads with mapping quality score greater than 25 were retained. […]

O=[N+]([O-])c1cc2nc(O)c(O)nc2cc1[N+](=O)[O-] [DQNX]
IGF1-promoted proliferation of tumor OPCs ([1]; 20 ng/mL IGF-1 plus 10 μM AMPA-receptor antagonist vs IGF-1 alone): did not affect

NCCCC(=O)O [GABA]
proliferation of tumor OPCs [1]: did not affect

N[C@@H](CCC(=O)O)C(=O)O [Glutamate]
proliferation of tumor OPCs [1]: did not affect

CN1CCN(C2=Nc3cc(Cl)ccc3Nc3ccccc32)CC1 [clozapine]
number or activation of local resident microglia (local resident microglia; CKO model regardless of tumor stage, Iba1+ and CD68+ Iba1+): not affected | granulocytes (CD15) in the brain parenchyma (local resident microglia; WT, Omp-hM3Dq, Omp-hM4Di and CKO tumor mice with clozapine treatment): barely any granulocytes could be found | integrity of the blood-brain-barrier (blood-brain-barrier): did not affect the integrity | number of granulocytes in peripheral blood (peripheral immune cells): slightly but significantly reduced | number of macrophages in peripheral blood (peripheral immune cells): increased

[Cl-].[K+] [potassium chloride]
proliferation of tumor OPCs [1]: did not affect

insulin-like growth factor-1 [IGF-1]
expression of RTK downstream genes such as Egr3/4 and Fosl2 [2]: significant upregulation | expression of neurotransmitter receptor genes including AMPARs in tumor OPCs [2]: did not affect the expression | proliferation of tumor OPCs in vitro ([1]; 20 ng/mL IGF-1, glioma cell lines 1483 and 1877): significantly stimulated the proliferation
